The nature of data set [1]: Stability assessment / semi-quantitative hygroscopicity in a relative humidity (RH) chamber. It is filed as physicochemical. The note with it: solid in RH chamber; morphology and parent:prodrug composition. Here is the method:
“ND” in Table 2 refers to “No Data”. Purity was determined by HPLC. Melting point was determined by differential scanning calorimetry (“DSC”), and semi-quantitative hygroscopicity was determined in a relative humidity (“RH”) chamber.

The nature of data set [2]: Stability in mouse liver microsomal preparations. It is filed as in vitro ADME. The settings on record: liver microsomes, with and without 1 mM NADPH (not said which), read-out: Mouse Liver Microsomes t1/2. Here is the method: (§1) Relative stability of Example Compound Nos. 1 through 60 in mouse plasma and mouse liver microsomal preparations.
(§2) Certain Example Compounds were each added to a final concentration of 1 μM to 1 mL of each of mouse plasma and mouse liver microsomal preparations (with and without 1 mM NADPH). Stability assays were run in duplicate and were sampled at 0, 5, 15, 30, 60 and 120 minutes as follows: one hundred microliter aliquots of samples were removed at the specified sampling times, and the reaction was quenched with 400 μL of acetonitrile.
(§3) Samples were analyzed by HPLC-ESI-MS/MS by measuring the peak area of both the starting Example Compound and parent compound (i.e., either Parent Compound A or Parent Compound B) that were created by removal of the Prodrug Moiety (as defined in Section 6 herein).
In general terms: Liver microsomes are vesicles of endoplasmic reticulum, rich in cytochrome P450 enzymes.

The nature of data set [3]: Stability in mouse plasma. The settings on record: read-out: Mouse Plasma t1/2. It is filed as in vitro ADME. The protocol:
as §1, §2, §3

In data set [4] the test system is HT1080 human fibrosarcoma cancer cells. Put plainly: Anti-tumor activity in HT1080 human fibrosarcoma xenograft with twice daily dosing. The note with it: for animals euthanized due to tumor volume exceeding 1,500 mm^3 / animals died: Example Compound 42 study, cohort of ten; for anti-tumor activity in the HT1080 xenograft model (summary statement): administered orally, twice daily. It is filed as in vivo. The protocol:
One million HT1080 cells were implanted subcutaneously in the right flank of female nude mice (Crl:NU-Fox1^nu). When the median tumor volume (MTV) was approximately 209 mm^3, mice were randomized into four cohorts of ten animals. […] All cohorts were dosed twice daily for 7 days. The mice were observed daily for mortality and signs of toxicity. Tumor volumes and body weights were determined from Days 1 to 22. The results are depicted in FIG. 4.
On the technique in general: Xenograft models place foreign cells or tissue in a host animal.

Where [5] appears, read: Example Compounds 44/45 study, 12 mg/kg twice daily for 7 days, Day 9.

In the case of `CC(=O)OC(C)[n+]1cccc(CNC(=O)Nc2ccc(OCCc3ccccc3-c3ccccc3)cc2)c1` (centres unmarked) [Example 37, 1-[1-(Acetyloxy)ethyl]-3-{[({4-[2-(biphenyl-2-yl)ethoxy]phenyl}carbamoyl)amino]methyl}pyridinium], in data set [1], the “Stability at 40° C. and 75% RH” value is listed as “Deliquesced at 2 Hr No change in composition”; the “Stability at 60° C. and 75% RH” value is listed as “Deliquesced at 2 Hr No change in composition”. Further, the half-life at 1 µM in data set [2] stood at 18.7 min. Moreover, the half-life at 1 µM in data set [3] was greater than 5 min.
As to `CC(OC(=O)c1ccccc1)[n+]1cccc(CNC(=O)Nc2ccc(OCCc3ccccc3-c3ccccc3)cc2)c1` (centres unmarked) [Example 42, 1-[1-(Benzoyloxy)ethyl]-3-{[({4-[2-(biphenyl-2-yl)ethoxy]phenyl}carbamoyl)amino]methyl}pyridinium], the “Stability at 40° C. and 75% RH” value in data set [1] is recorded as “No change in morphology at 14 days, only prodrug observed”. Further, in data set [1], the “Stability at 60° C. and 75% RH” value is “Deliquesced at 13 days, approx 40:60 parent to prodrug observed”. Further, the MTV increase in data set [4] (4 mg/kg twice daily for 7 days, Day 8) is recorded as 131%; in data set [4] (4 mg/kg twice daily for 7 days, end of the study, Day 15) it was 469%; in data set [4] (6 mg/kg twice daily for 7 days, Day 8), 87%; in data set [4] (6 mg/kg twice daily for 7 days, end of the study, Day 15), 215%; in data set [4] (8 mg/kg twice daily for 7 days, end of the study, Day 15) it was 449%; in data set [4] (12 mg/kg twice daily for 7 days, end of the study, Day 15), 236%. Also, the tumor growth inhibition in data set [4] (4 mg/kg twice daily for 7 days, end of dosing, Day 8) is recorded as 21%; in data set [4] (6 mg/kg twice daily for 7 days, end of dosing, Day 8), 48%. In addition, the MTV decrease in data set [4] (8 mg/kg twice daily for 7 days, Day 8) turned out to be 4%; in data set [4] (12 mg/kg twice daily for 7 days, Day 8), 38%. Also, the tumor regression in data set [4] (8 mg/kg twice daily for 7 days, end of dosing, Day 8) is on record as 4%; in data set [4] (12 mg/kg twice daily for 7 days, end of dosing, Day 8) it was 38%. Further, the “animals euthanized due to tumor volume exceeding 1,500 mm^3” value in data set [4] (4 mg/kg) was “three”; in data set [4] (6 mg/kg), “one”; in data set [4] (8 mg/kg), “two”. The animals died result in data set [4] (6 mg/kg), in data set [4] (8 mg/kg) and in data set [4] (12 mg/kg) was “One” each time. For the same molecule, the “anti-tumor activity in the HT1080 xenograft model (summary statement)” value in data set [4] (all doses tested) is “dose-dependent anti-tumor activity”.
Regarding `CC(=O)OC[C@@H]1CCCN1C(=O)OC[n+]1cccc(CNC(=O)Nc2ccc(OCCc3ccccc3-c3ccccc3)cc2)c1` [Example 45, 1-{[({(2S)-2-[(Acetyloxy)methyl]pyrrolidin-1-yl}carbonyl)oxy]methyl}-3-{[({4-[2-(biphenyl-2-yl)ethoxy]phenyl}carbamoyl)amino]methyl}pyridinium], the half-life at 1 µM in data set [2] was greater than 5 min. Further, the half-life at 1 µM in data set [3] is greater than 5 min. Besides, in data set [4] (setting [5]), the MTV decrease is 54% and the tumor regression was 54%. Also, the “tumor growth inhibition relative to vehicle” value in data set [4] (Example Compounds 44/45 study, 12 mg/kg twice daily for 7 days, Day 22) stood at 91%. Also, the MTV increase in data set [4] (Example Compounds 44/45 study, 12 mg/kg twice daily for 7 days, end of the study, Day 22) is 33%. In data set [4] (all doses tested), the “anti-tumor activity in the HT1080 xenograft model (summary statement)” value was “significant anti-tumor activity”. Besides, the Tolerability entry in data set [4] (xenograft mice, all doses tested, orally twice daily) was “well tolerated”.
As for `O=C(NCc1ccc[n+](COC(=O)N2CCC[C@H]2CO)c1)Nc1ccc(OCCc2ccccc2-c2ccccc2)cc1` [Example 46, 3-{[({4-[2-(Biphenyl-2-yl)ethoxy]phenyl}carbamoyl)amino]methyl}-1-[({[(2S)-2-(hydroxymethyl)pyrrolidin-1-yl]carbonyl}oxy)methyl]pyridinium], the half-life at 1 µM in data set [2] stood at 1250 min; in data set [3], 87.2 min.
On to `CC(C)C(=O)OC(C)[n+]1cccc(CNC(=O)Nc2ccc(OCCc3ccccc3-c3ccccc3)cc2)c1` (centres unmarked) [Example 47, 3-{[({4-[2-(Biphenyl-2-yl)ethoxy]phenyl}carbamoyl)amino]methyl}-1-{1-[(2-methylpropanoyl)oxy]ethyl}pyridinium], for which, in data set [1], the “Stability at 40° C. and 75% RH” value was “No change in morphology at 14 days, only prodrug observed”; the “Stability at 60° C. and 75% RH” value is given as “Approximately 45:55 parent to prodrug observed after 14 days”.
For `COC(=O)CNC(=O)OC[n+]1cccc(CNC(=O)Nc2ccc(OCCc3ccccc3-c3ccccc3)cc2)c1` [Example 48, Methyl N-{[(3-{[({4-[2-(biphenyl-2-yl)ethoxy]phenyl}carbamoyl)amino]methyl}pyridinium-1-yl)methoxy]carbonyl}glycinate], in that order: “Deliquesced at 2 hr No decomposition observed” and “Deliquesced at 2 hr No decomposition observed”.
For `COC(=O)CCNC(=O)OC[n+]1cccc(CNC(=O)Nc2ccc(OCCc3ccccc3-c3ccccc3)cc2)c1` [Example 49, Methyl N-{[(3-{[({4-[2-(biphenyl-2-yl)ethoxy]phenyl}carbamoyl)amino]methyl}pyridinium-1-yl)methoxy]carbonyl}-beta-alaninate], in that order: “Deliquesced at 24 hrs No decomposition observed” and “Deliquesced at 7 days”.
Turning to `COC(=O)CN(C)C(=O)OC[n+]1cccc(CNC(=O)Nc2ccc(OCCc3ccccc3-c3ccccc3)cc2)c1` [Example 50, Methyl N-{[(3-{[({4-[2-(biphenyl-2-yl)ethoxy]phenyl}carbamoyl)amino]methyl}pyridinium-1-yl)methoxy]carbonyl}-N-methylglycinate], in data set [1], the “Stability at 40° C. and 75% RH” value is “No change in morphology at 14 days, only prodrug observed”; the “Stability at 60° C. and 75% RH” value is “Oiled out at 2 days No decomposition observed”.
In the case of `O=C(NCc1ccc[n+](COC(=O)c2cccnc2)c1)Nc1ccc(OCCc2ccccc2-c2ccccc2)cc1` [Example 53, 3-{[({4-[2-(Biphenyl-2-yl)ethoxy]phenyl)carbamoyl)amino]methyl}-1-{[(pyridin-3-ylcarbonyl)oxy]methyl}pyridinium], the “Stability at 60° C. and 75% RH” value in data set [1] is listed as “All prodrug decomposed to parent at 24 h”.
For the molecule `COC(=O)CCC(=O)OC[n+]1cccc(CNC(=O)Nc2ccc(OCCc3ccccc3-c3ccccc3)cc2)c1` [Example 54, 3-{[({4-[2-(Biphenyl-2-yl)ethoxy]phenyl}carbamoyl)amino]methyl}-1-{[(4-methoxy-4-oxobutanoyl)oxy]methyl}pyridinium], the “Stability at 60° C. and 75% RH” value in data set [1] was “Deliquesced at 4 days”.
Regarding `O=C(NCc1ccc[n+](COC(=O)c2ccccc2O)c1)Nc1ccc(OCCc2ccccc2-c2ccccc2)cc1` [Example 55, 3-{[({4-[2-(Biphenyl-2-yl)ethoxy]phenyl}carbamoyl)amino]methyl}-1-{[(2-hydroxybenzoyl)oxy]methyl}pyridinium], in data set [1], the “Stability at 40° C. and 75% RH” value is listed as “Deliquesced at 4 h”; the “Stability at 60° C. and 75% RH” value is on record as “Deliquesced at 4 h”.
Consider `O=C(NCc1ccc[n+](COC(=O)N2CCCC2)c1)Nc1ccc(OCCc2ccccc2-c2ccccc2)cc1` [Example 59, 3-{[({4-[2-(Biphenyl-2-yl)ethoxy]phenyl}carbamoyl)amino]methyl}-1-{[(pyrrolidin-1-ylcarbonyl)oxy]methyl}pyridinium], for which, in data set [1], the “Stability at 60° C. and 75% RH” value was “Deliquesced at 4 h”.
As to `O=C(NCc1ccc[n+](COC(=O)N2CCOCC2)c1)Nc1ccc(OCCc2ccccc2-c2ccccc2)cc1` [Example 60, 3-{[({4-[2-(Biphenyl-2-yl)ethoxy]phenyl}carbamoyl)amino]methyl}-1-{[(morpholin-4-ylcarbonyl)oxy]methyl}pyridinium], in data set [1], the “Stability at 40° C. and 75% RH” value is “Deliquesced at 4 h”; the “Stability at 60° C. and 75% RH” value is “Deliquesced at 4 h”.

The values are drawn from patent US20150344426A1, “COMPOUNDS AND THERAPEUTIC USES THEREOF” (ALZHEIMER'S INSTITUTE OF AMERICA, INC., priority 2012, published 2015).
